Data from US20250051327A1, “MALT-1 MODULATORS” (EXSCIENTIA AI LIMITED, priority 2020, published 2025).

How the values were obtained:
[1] = molecular target: Recombinant human MALT-1 (amino acids 340-824) (Homo sapiens (Human), UniProt Q9UDY8); experiment: MALT-1 inhibition assay (fluorogenic substrate Ac-LRSR-Rh110-DP); type: biochemical; conditions: recombinant human MALT-1, substrate Ac-LRSR-Rh110-DP
Outline: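 Reactions were started with fluorogenic substrate Ac-LRSR-Rh110-DP (10 μM final) against 3 nM enzyme and kept dark at 25° C for 60 minutes. IC50 values came from 4-parameter logistic fits of percent inhibition calculated from relative fluorescence units.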

[2] = tested on: IL-2 secretion by human effector memory T cells (TEM); experiment: Effector memory T cells IL-2 release assay; type: cell-based; conditions: T-cell; human CD4+ effector memory T cells, CD3/CD28 bead stimulation, 24 h; read-out: CD4TC IL2 IC50
Outline: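 Human CD4+ effector memory T cells from healthy-donor buffy coats were stimulated with anti-CD3/CD28 Dynabeads and exposed to 10 semi-log compound doses (0.1% DMSO) for 24 h at 37 °C. Supernatant IL-2 was measured by HTRF, and IC50 came from a 4-parameter logistic fit to maximal IL-2. Viability was checked by flow cytometry.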

Sequence of Recombinant human MALT-1 (amino acids 340-824) (Q9UDY8 340-824): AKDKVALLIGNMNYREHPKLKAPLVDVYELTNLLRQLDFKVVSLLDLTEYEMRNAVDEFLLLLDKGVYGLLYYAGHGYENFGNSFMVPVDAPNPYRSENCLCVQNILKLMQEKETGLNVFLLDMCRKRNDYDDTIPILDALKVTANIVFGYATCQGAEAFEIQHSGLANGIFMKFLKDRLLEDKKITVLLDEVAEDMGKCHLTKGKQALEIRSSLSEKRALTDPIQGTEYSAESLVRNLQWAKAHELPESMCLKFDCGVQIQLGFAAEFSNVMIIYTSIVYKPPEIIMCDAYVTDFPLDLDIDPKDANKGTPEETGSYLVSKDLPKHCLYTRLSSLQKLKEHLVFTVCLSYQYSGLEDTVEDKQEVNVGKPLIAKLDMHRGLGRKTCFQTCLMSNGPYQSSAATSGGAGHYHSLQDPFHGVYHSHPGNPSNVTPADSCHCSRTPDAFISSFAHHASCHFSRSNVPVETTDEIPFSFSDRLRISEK

Compound | IC50 [1] | IC50 [2]
CN(C(=O)[C@H]1CC[S@@+]([O-])CC1)[C@@H](c1ccc(N2CCCc3c2cnc2cc(Cl)nn32)cc1)C(F)(F)F (relative stereo) [CPD0022136, (1rel-s,4rel-s)-N-[(1S)-1-(4-{4-chloro-2,3,7,10-tetraazatricyclo[7.4.0.0^2,6]trideca-1(9),3,5,7-tetraen-10-yl}phenyl)-2,2,2-trifluoroethyl]-N-methyl-1-oxo-1λ^4-thiane-4-carboxamide] | 45 nM | 106 nM
CN(C(=O)[C@H]1CCN(C(=O)CO)C1)[C@@H](c1ccc(N2CCCc3c2cnc2cc(Cl)nn32)cc1)C(F)(F)F (relative stereo) [CPD0073977, (3rel-S)—N-[(1S)-1-(4-{4-chloro-2,3,7,10-tetraazatricyclo[7.4.0.0^2,6]trideca-1(9),3,5,7-tetraen-10-yl}phenyl)-2,2,2-trifluoroethyl]-1-(2-hydroxyacetyl)-N-methylpyrrolidine-3-carboxamide] | 39 nM | 115 nM
Cc1cn2ncc(Nc3ccc([C@H](N(C)C(=O)C4CCS(=O)(=O)CC4)C(F)(F)F)cc3)cc2n1 [CPD0018617, N-methyl-1,1-dioxo-N-[(1S)-2,2,2-trifluoro-1-[4-({2-methylimidazo[1,2-b]pyridazin-7-yl}amino)phenyl]ethyl]-1λ^6-thiane-4-carboxamide] | 598 nM | 386 nM
COC[C@@]1(C)CCN(c2ccc([C@H](N(C)C(=O)[C@H]3CC[S@@+]([O-])CC3)C(F)(F)F)cc2)c2cnc3cc(Cl)nn3c21 (relative stereo) [CPD0073137, (1rel-s,4rel-s)-N-[(1S)-1-[4-[(13rel-S)-4-chloro-13-(methoxymethyl)-13-methyl-2,3,7,10-tetrazatricyclo[7.4.0.0^2,6]trideca-1(9),3,5,7-tetraen-10-yl]phenyl]-2,2,2-trifluoro-ethyl]-N-methyl-1-oxo-1λ^4-thiane-4-carboxamide] | 90 nM | 45 nM
CN(C(=O)[C@H]1C[C@H](S(C)(=O)=O)C1)[C@@H](c1ccc(N2CCCc3c2cnc2cc(Cl)nn32)cc1)C(F)(F)F [CPD0073501, trans-N-[(1S)-1-(4-{4-chloro-2,3,7,10-tetraazatricyclo[7.4.0.0^2,6]trideca-1(9),3,5,7-tetraen-10-yl}phenyl)-2,2,2-trifluoroethyl]-3-methanesulfonyl-N-methylcyclobutane-1-carboxamide] | 66 nM | 140 nM
CN(C(=O)[C@H]1CC[S@+]([O-])CC1)[C@@H](c1ccc(N2CCC(C)(C)c3c2cnc2cc(F)nn32)cc1)C(F)(F)F (relative stereo) [CPD0072781, (1rel-r,4rel-r)-N-methyl-1-oxo-N-[(1S)-2,2,2-trifluoro-1-(4-{4-fluoro-13,13-dimethyl-2,3,7,10-tetraazatricyclo [7.4.0.02,6]trideca-1(9),3,5,7-tetraen-10-yl}phenyl)ethyl]-1/4-thiane-4-carboxamide] | 60 nM | 75 nM
CN(C(=O)[C@@H]1C[C@H]2CC[C@@H](C1)S2(=O)=O)[C@@H](c1ccc(N2CCCc3c2cnc2cc(Cl)nn32)cc1)C(F)(F)F [CPD0072938, (1R,3R,5S)-N-[(1S)-1-(4-{4-chloro-2,3,7,10-tetraazatricyclo[7.4.0.0^2,6]trideca-1(9),3,5,7-tetraen-10-yl}phenyl)-2,2,2-trifluoroethyl]-N-methyl-8,8-dioxo-8λ^6-thiabicyclo[3.2.1]octane-3-carboxamide] | 90 nM | 92 nM
CN(C(=O)C1CCS(=O)(=O)CC1)[C@@H](c1ccc(N2CC(C)(C)Cc3c2cnc2cc(Cl)nn32)cc1)C(F)(F)F [CPD0022149, N-[(1S)-1-(4-{4-chloro-12,12-dimethyl-2,3,7,10-tetraazatricyclo[7.4.0.0^2,6]trideca-1(9),3,5,7-tetraen-10-yl}phenyl)-2,2,2-trifluoroethyl]-N-methyl-1,1-dioxo-1λ^6-thiane-4-carboxamide] | 71 nM | 93 nM
CN(C(=O)C1(C#N)CCS(=O)(=O)CC1)[C@@H](c1ccc(N2CCCc3c2cnc2cc(Cl)nn32)cc1)C(F)(F)F [CPD0073553, N-[(1S)-1-(4-{4-chloro-2,3,7,10-tetraazatricyclo[7.4.0.0^2,6]trideca-1(9),3,5,7-tetraen-10-yl}phenyl)-2,2,2-trifluoroethyl]-4-cyano-N-methyl-1,1-dioxo-1λ^6-thiane-4-carboxamide] | 50 nM | 77 nM
CN(C(=O)[C@H]1CC[S@@](=N)(=O)CC1)[C@@H](c1ccc(N2CCC3(CC3)c3c2cnc2cc(F)nn32)cc1)C(F)(F)F (relative stereo) [CPD0072852, (1rel-s,4rel-s)-1-imino-N-methyl-1-oxo-N-[(1S)-2,2,2-trifluoro-1-(4-{4′-fluoro-2′,3′,7′,10′-tetraazaspiro[cyclopropane-1,13′-tricyclo[7.4.0.0^2,6]tridecane]-1′(9′),3′,5′,7′-tetraen-10′-yl}phenyl)ethyl]-1λ^6-thiane-4-carboxamide] | 28 nM | 65 nM
C[C@@H]1CCN(c2ccc([C@H](N(C)C(=O)[C@H]3CCC(=O)NC3)C(F)(F)F)cc2)c2cnc3cc(Cl)nn3c21 (relative stereo) [CPD0074549, (3rel-S)-N-[(1S)-1-[4-[(13rel-R)-4-chloro-13-methyl-2,3,7,10-tetrazatricyclo[7.4.0.0^2,6]trideca-1(9),3,5,7-tetraen-10-yl]phenyl]-2,2,2-trifluoro-ethyl]-N-methyl-6-oxo-piperidine-3-carboxamide] | 37 nM | 142 nM
CN(C(=O)CC1CCNC1)[C@@H](c1ccc(N2CCCc3c2cnc2cc(Cl)nn32)cc1)C(F)(F)F (stereo partly drawn) [CPD0021849, N-[(1S)-1-(4-{4-chloro-2,3,7,10-tetraazatricyclo[7.4.0.0^2,6]trideca-1(9),3,5,7-tetraen-10-yl}phenyl)-2,2,2-trifluoroethyl]-N-methyl-2-(pyrrolidin-3-yl)acetamide] | 203 nM | 558 nM
CN(C(=O)CN1C(=O)COC1=O)[C@@H](c1ccc(N2CCCc3c2cnc2cc(Cl)nn32)cc1)C(F)(F)F [CPD0073237, N-[(1S)-1-(4-{4-chloro-2,3,7,10-tetraazatricyclo[7.4.0.0^2,6]trideca-1(9),3,5,7-tetraen-10-yl}phenyl)-2,2,2-trifluoroethyl]-2-(2,4-dioxo-1,3-oxazolidin-3-yl)-N-methylacetamide] | 174 nM | 513 nM
CN(C(=O)[C@@H]1CC12CCS(=O)(=O)CC2)[C@@H](c1ccc(N2CCCc3c2cnc2cc(Cl)nn32)cc1)C(F)(F)F (relative stereo) [CPD0073921, (1rel-R)-N-[(1S)-1-(4-{4-chloro-2,3,7,10-tetraazatricyclo[7.4.0.0^2,6]trideca-1(9),3,5,7-tetraen-10-yl}phenyl)-2,2,2-trifluoroethyl]-N-methyl-6,6-dioxo-6λ^6-thiaspiro[2.5]octane-1-carboxamide] | 109 nM | 186 nM

Further lines, results first:

IC50 [1] | IC50 [2] | Compound
83 nM | 195 nM | CN(C(=O)C1CCS(=O)(=O)CC1)[C@@H](c1ccc(N2CCCc3c2cnc2cc(F)nn32)cc1)C(F)(F)F [CPD0021664, N-methyl-1,1-dioxo-N-[(1S)-2,2,2-trifluoro-1-(4-{4-fluoro-2,3,7,10-tetraazatricyclo[7.4.0.0^2,6]trideca-1(9),3,5,7-tetraen-10-yl}phenyl)ethyl]-1λ^6-thiane-4-carboxamide]
59 nM | 127 nM | CN=[S@]1(=O)CC[C@@H](C(=O)N(C)[C@@H](c2ccc(N3CCCc4c3cnc3cc(Cl)nn43)cc2)C(F)(F)F)CC1 (relative stereo) [CPD0072530, (1rel-S,4rel-S)—N-[(1S)-1-(4-{4-chloro-2,3,7,10-tetraazatricyclo[7.4.0.0^2,6]trideca-1(9),3,5,7-tetraen-10-yl}phenyl)-2,2,2-trifluoroethyl]-N-methyl-1-(methylimino)-1-oxo-1λ^e-thiane-4-carboxamide]
84 nM | 86 nM | CN(C(=O)C1CC(O)C1)[C@@H](c1ccc(N2CCCc3c2cnc2cc(Cl)nn32)cc1)C(F)(F)F (stereo partly drawn) [CPD0021565, N-[(1S)-1-(4-{4-chloro-2,3,7,10-tetraazatricyclo[7.4.0.0^2,6]trideca-1(9),3,5,7-tetraen-10-yl}phenyl)-2,2,2-trifluoroethyl]-3-hydroxy-N-methylcyclobutane-1-carboxamide]
196 nM | 417 nM | CN(C(=O)c1nn(C)cc1Cl)[C@@H](c1ccc(N2CCCc3c2cnc2cc(Cl)nn32)cc1)C(F)(F)F [CPD0019352, 4-chloro-N-[(1S)-1-(4-{4-chloro-2,3,7,10-tetraazatricyclo[7.4.0.0^2,6]trideca-1(9),3,5,7-tetraen-10-yl}phenyl)-2,2,2-trifluoroethyl]-N,1-dimethyl-1H-pyrazole-3-carboxamide]
302 nM | 1470 nM | CN([C@@H](c1ccc(N2CCCc3c2cnc2cc(Cl)nn32)cc1)C(F)(F)F)[S+]([O-])C(C)(C)C (stereo partly drawn) [CPD0021661]
62 nM | 269 nM | CN(C(=O)C1CN(C(=O)[C@@H]2CCO2)C1)[C@@H](c1ccc(N2CCCc3c2cnc2cc(Cl)nn32)cc1)C(F)(F)F (relative stereo) [CPD0073563, N-[(1S)-1-(4-{4-chloro-2,3,7,10-tetraazatricyclo[7.4.0.0^2,6]trideca-1(9),3,5,7-tetraen-10-yl}phenyl)-2,2,2-trifluoroethyl]-N-methyl-1-[(2rel-S)-oxetane-2-carbonyl]azetidine-3-carboxamide]
43 nM | 114 nM | CO[C@H](C)c1c(Nc2ccc([C@H](N(C)C(=O)C3CCS(=O)(=O)CC3)C(F)(F)F)cc2)cnn2cc(Cl)nc12 [CPD0072850]
